Earlier results in publication PMC8459971, “Evaluation of the hepatotoxicity of the novel GPR40 (FFAR1) agonist CPL207280 in the rat and monkey” (PLoS ONE, 2021).
Read-outs that look alike come from different tables or passages of the source. Marks after values point to notes of the source that are not given here.

Experiments:
[1] = summary table, literature; cited from earlier work
[2] = cited from earlier work; for AUC24h (Mean) / Cmax (Mean): rat; for exposure in plasma (AUC): rats
[3] = 600 mg/kg for 14 days; cited from earlier work
[4] = cited from earlier work
[5] = cited from earlier work; remark: listed apart in the source
[6] = 14-day toxicology study in rats

Compound: Cc1cc(OCCCS(C)(=O)=O)cc(C)c1-c1cccc(COc2ccc3c(c2)OC[C@H]3CC(=O)O)c1 [TAK-875, fasiglifam, reference compound]
- Acyl glucuronide presence in human hepatocytes [1]: Yes
- effect on ALT [2, 6]: significantly increased ALT at doses of 200 and 600 mg/kg after seven days
- effect on TBA and T-BIL [2, 6]: increased TBA and T-BIL levels at a dose of 600 mg/kg
- AUC24h (Mean) ([2]; Day 1, Dose 200 mg/kg/day): 1210000* ng x hr/mL
- Cmax (Mean) ([2]; Day 1, Dose 200 mg/kg/day): 296000* ng/ml
- AUC24h (Mean) ([2]; Day 1, Dose 600 mg/kg/day): 2010000* ng x hr/mL
- Cmax (Mean) ([2]; Day 1, Dose 600 mg/kg/day): 465000* ng/ml
- AUC24h (Mean) ([2]; Day 14, Dose 200 mg/kg/day): 3740000* ng x hr/mL
- Cmax (Mean) ([2]; Day 14, Dose 200 mg/kg/day): 271000* ng/ml
- AUC24h (Mean) ([2]; Day 14, Dose 600 mg/kg/day): 6610000* ng x hr/mL
- Cmax (Mean) ([2]; Day 14, Dose 600 mg/kg/day): 383000* ng/ml
- exposure in plasma (AUC) ([2]; 200 mg/kg, day 1): 1.21 mg·h/mL
- exposure in plasma (AUC) ([2]; 200 mg/kg, day 14): 3.74 mg·h/mL
- exposure in plasma (AUC) ([2]; 600 mg/kg, day 1): 2.01 mg·h/mL
- exposure in plasma (AUC) ([2]; 600 mg/kg, day 14): 6.61 mg·h/mL
- Accumulation in rat plasma after repeat dose ([2]; summary table): Yes
- Propensity to elevate bile acids and bilirubin in plasma ([2]; summary table): Yes
- effect on ALT, TBA, T-BIL in dogs [3]: observed in only 2 of 6 animals
- plasma protein binding (PPB) [4]: > 99.4%
- long exposure in humans [5]: approximately 30 h
